Source: paper PMC11063393 (Heliyon, 2024)

Biological target: tyrosinase
Assay: absorbance at […] nm, L-DOPA oxidation
Format: biochemical
Conditions: L-DOPA […] stock, […] phosphate, pH […] °C, […] min preincubation

Control (Quercetin) / IC50 (μg/mL)s: 22.15 ± 0.12 µg/mL
SMILES: O=c1c(O)c(-c2ccc(O)c(O)c2)oc2cc(O)cc(O)c12 [Quercetin]
